# Reference: US20240027453A1, “METHOD FOR DETECTION AND QUANTITATIVE MONITORING OF INFECTIONS WITH HERPESVIRUSES” (The Trustees of Princeton University, priority 2020, published 2024)
# Where two headings read alike, the source gives them in different places.
# System: HCMV
# Type: cell-based
# Procedure: In example herpesvirus PRM assay methods shown herein, cell pellets were lysed in 2% SDS, 100 mM NaCl, 0.5 mM EDTA, 50 mM Tris, pH 8.2, and 50 μg of protein was reduced and alkylated with 25 mM TCEP and 50 mM CAM respectively for 20 min at 70° C. Proteins were then precipitated via methanol chloroform precipitation (Wessel & Flugg, Anal Biochem. 138(1):141-143, 1984), resuspended in 50 mM HEPES, pH 8.2 and digested overnight with trypsin (50:1 protein:enzyme w/w ratio). Digested peptides were desalted by SDB-RPS StageTip as previously described (Lum et al., Cell Syst., 7(6):[…], 2018; Greco et al., Methods Mol Biol 1410:39-63, 2016; Federspiel & Cristea, Methods Mol Biol., 1977:115-143, 2019).
# Peptides (1.0 μg on column) were analyzed by LC-MS/MS using a Dionex Ultimate 3000 UHPLC coupled online to an EASYSpray ion source and a Q Exactive HF. Peptides were separated on an EASYSpray C18 column (75 μm×25 cm) heated to 50° C. using a linear gradient of 5% B to 32% B over 60 min at a flow rate of 250 nL/min and were ionized at 1.7 kv. Mobile phase A consisted of 0.1% FA in H2O and mobile phase B consisted of 0.1% FA, 2.9% H2O in ACN.
# The PRM method was controlled by a peptide inclusion list with retention time windows of 6 min for selected precursor ions.
# The PRM assay was developed and analyzed using the open-source software Skyline (Maclean et al., Bioinformatics 26(7):966-968, 2010). Summed area under the curve of 3-4 transitions per peptide was used for quantitation. Targeted peptides were normalized to host protein loading control peptides. Peptide values for each sample were scaled to the average of each peptide across all runs. The average of multiple peptides was used as the inferred value for the protein measurement when more than one peptide was quantified (Federspiel et al., PLoS Biol. 17(9):e3000437. Doi: 10.1371/journal.pbio.3000437). PRM quantitation data were graphed using the Python Seaborn and Matplotlib libraries.
# MRC5 primary human fibroblasts (HFs) (ATCC CCL-171) were used as the model system for HSV-1 and HCMV infections and were cultured in complete growth medium (DMEM supplemented with 10% fetal bovine serum and 1% penicillin-streptomycin antibiotics) at 37° C. and 5% CO2. iSLK.219 cells harboring latent KSHV (a gift from Dr. Britt Glaunsinger, University of California, Berkeley) were grown in complete growth medium supplemented with 500 μg/ml hygromycin (ThermoFisher Scientific, 10687010) at 37° C. and 5% CO2. All cells were used for experiments within a maximum of 10 passages.
# Wild type HSV-1 strain 17+ (a gift from Beate Sodeik, Hannover Medical School, Hannover, Germany) was propagated as previously described (Diner et al., 2015). Briefly, PO stocks were generated by electroporating pBAC-HSV-1 into U-2 OS cells. […] In a similar manner, wild type HCMV strain AD169 was produced from BAC electroporation into HFs and working stocks were propagated by infecting HFs at a low level. In both cases, cell-associated virus was released by sonication, combined with supernatant virus, then concentrated by ultracentrifugation (20,000 rpm, 2 hours, 4° C. with SW28 swinging bucket rotor [Beckman Coulter]) over a 10% ficoll (HSV-1) or 20% sorbitol (HCMV) cushion. Virus stock titers were determined by plaque assay for HSV-1 or tissue culture infectious dose (TCID50) for HCMV and infections were performed at a multiplicity of infection (MOI) of 3.
# 12 hours prior to virus infection or reactivation, cells were treated with either the small molecule drug or DMSO/PBS control at an equivalent volume. […] For infection cycles lasting longer than 24 hours, small molecule drugs were re-added to the cell culture medium every 24 hours. Upon collection, cells were rinsed with PBS, scraped into a microcentrifuge tube, pelleted by centrifugation, and rinsed again with PBS.
compound,measurement,setting,value
"Nc1ccn(C[C@@H](CO)OCP(=O)(O)O)c(=O)n1 [CDV, cidofovir]","gB (P06473) protein, numerical value of heatmap FIG. 6C","DE, timepoint 96",0.9959
same,"sp|P09710|IR01_HCMVA (P09710) protein, numerical value of heatmap FIG. 6C","DE, timepoint 96",0.4967
same,"CVC2 (P16726) protein, numerical value of heatmap FIG. 6C","DE, timepoint 120",0.9588
same,"DBP (P17147) protein, numerical value of heatmap FIG. 6C","DE, timepoint 120",2.035
same,"HELI (P16736) protein, numerical value of heatmap FIG. 6C","DE, timepoint 120",1.128
same,"NEC1 (P16794) protein, numerical value of heatmap FIG. 6C","DE, timepoint 120",1.121
same,"NEC2 (P16791) protein, numerical value of heatmap FIG. 6C","DE, timepoint 120",1.797
same,"RIR1 (P16782) protein, numerical value of heatmap FIG. 6C","DE, timepoint 120",1.313
same,"TRM1 (P16724) protein, numerical value of heatmap FIG. 6C","DE, timepoint 120",1.312
same,"UL4 (P17146) protein, numerical value of heatmap FIG. 6C","DE, timepoint 120",0.635
same,"UL26 (P16762) protein, numerical value of heatmap FIG. 6C","DE, timepoint 120",1.564
same,"UL32 (P08318) protein, numerical value of heatmap FIG. 6C","DE, timepoint 120",1.478
same,"UL34 (P16812) protein, numerical value of heatmap FIG. 6C","DE, timepoint 120",0.9444
same,"UL35 (P16766) protein, numerical value of heatmap FIG. 6C","DE, timepoint 120",1.133
same,"UL38 (P16779) protein, numerical value of heatmap FIG. 6C","DE, timepoint 120",1.272
same,"UL44 (P16790) protein, numerical value of heatmap FIG. 6C","DE, timepoint 120",1.235
same,"UL48 (P16785) protein, numerical value of heatmap FIG. 6C","DE, timepoint 120",1.1
same,"UL54 (P08546) protein, numerical value of heatmap FIG. 6C","DE, timepoint 120",1.415
same,"UL71 (P16823) protein, numerical value of heatmap FIG. 6C","DE, timepoint 120",1.229
same,"UL78 (P16751) protein, numerical value of heatmap FIG. 6C","DE, timepoint 120",0.9208
same,"UL84 (P16727) protein, numerical value of heatmap FIG. 6C","DE, timepoint 120",1.217
same,"UL95 (P16801) protein, numerical value of heatmap FIG. 6C","DE, timepoint 120",0.7275
same,"UL96 (P16787) protein, numerical value of heatmap FIG. 6C","DE, timepoint 120",1.265
same,"UL97 (P16788) protein, numerical value of heatmap FIG. 6C","DE, timepoint 120",1.137
same,"UL98 (P16789) protein, numerical value of heatmap FIG. 6C","DE, timepoint 120",1.14
same,"UL102 (P16827) protein, numerical value of heatmap FIG. 6C","DE, timepoint 120",1.353
same,"UL104 (P16735) protein, numerical value of heatmap FIG. 6C","DE, timepoint 120",0.8938
same,"UL112/UL113 (P17151) protein, numerical value of heatmap FIG. 6C","DE, timepoint 120",0.8795
same,"UL114 (P16769) protein, numerical value of heatmap FIG. 6C","DE, timepoint 120",1.541
same,"UL119/UL118 (P16739) protein, numerical value of heatmap FIG. 6C","DE, timepoint 120",0.8678
same,"UL128 (P16837) protein, numerical value of heatmap FIG. 6C","DE, timepoint 120",1.193
same,"US8 (P09730) protein, numerical value of heatmap FIG. 6C","DE, timepoint 120",1.14
same,"US9 (P09729) protein, numerical value of heatmap FIG. 6C","DE, timepoint 120",1.342
same,"US12 (P09721) protein, numerical value of heatmap FIG. 6C","DE, timepoint 120",0.661
same,"US13 (P09720) protein, numerical value of heatmap FIG. 6C","DE, timepoint 120",0.7786
same,"US14 (P09719) protein, numerical value of heatmap FIG. 6C","DE, timepoint 120",0.6977
same,"US18 (P69334) protein, numerical value of heatmap FIG. 6C","DE, timepoint 120",0.679
same,"US22 (P09722) protein, numerical value of heatmap FIG. 6C","DE, timepoint 120",1.167
same,"US23 (P09701) protein, numerical value of heatmap FIG. 6C","DE, timepoint 120",1.024
same,"US24 (P09700) protein, numerical value of heatmap FIG. 6C","DE, timepoint 120",1.043
same,"gB (P06473) protein, numerical value of heatmap FIG. 6C","DE, timepoint 120",1.203
same,"sp|P09710|IR01_HCMVA (P09710) protein, numerical value of heatmap FIG. 6C","DE, timepoint 120",0.7849
same,"IRS1 (P09715) protein, numerical value of heatmap FIG. 6C","IE, timepoint 24",0.2
same,"TRS1 (P09695) protein, numerical value of heatmap FIG. 6C","IE, timepoint 24",0.1103
same,"UL13 (P16755) protein, numerical value of heatmap FIG. 6C","IE, timepoint 24",0.5131
same,"UL36 (P16767) protein, numerical value of heatmap FIG. 6C","IE, timepoint 24",0.9885
same,"UL37 (P16778) protein, numerical value of heatmap FIG. 6C","IE, timepoint 24",0.5466
same,"UL122 (P19893) protein, numerical value of heatmap FIG. 6C","IE, timepoint 24",0.05364
same,"UL123 (P13202) protein, numerical value of heatmap FIG. 6C","IE, timepoint 24",0.7324
same,"IRS1 (P09715) protein, numerical value of heatmap FIG. 6C","IE, timepoint 48",0.5408
same,"TRS1 (P09695) protein, numerical value of heatmap FIG. 6C","IE, timepoint 48",0.403
same,"UL13 (P16755) protein, numerical value of heatmap FIG. 6C","IE, timepoint 48",0.7812
